For the assay, the system named is cotton plants. The experiment in a line: Action as defoliant: leaf abscission of cotton plants after spray application. Format: in vivo.

Turning to `CCOC(=O)C(Cl)Cc1cc(-n2nc(C)n(C(F)F)c2=O)c(F)cc1Cl` (centres unmarked) [Carfentrazone-ethyl, carfentrazone-ethyl], the “Effect in % (leaf abscission)” value is, setting by setting: (Table 3.1 carfentrazone-ethyl trial, dose 25 g/ha, 10 days) 0%; (Table 3.1 carfentrazone-ethyl trial, dose 25 g/ha, 20 days) 5%; (Table 3.2 carfentrazone-ethyl trial, dose 1.5 g/ha, 6 days) 29%; (Table 3.2 carfentrazone-ethyl trial, dose 1.5 g/ha, 9 days) 29%.
Take `O=C(Nc1ccccc1)Nc1cnns1` [Thidiazuron, thidiazuron]: the “Effect in % (leaf abscission)” value runs as follows: (Table 1 fluthiacet-methyl trial, dose 25 g/ha, 4 days, cotton 8-10 leaf stage) 5%; (Table 1 fluthiacet-methyl trial, dose 25 g/ha, 5 days, cotton 8-10 leaf stage) 24%; (Table 2 pyraflufen-ethyl trial, dose 25 g/ha, 3 days) 4%; (Table 2 pyraflufen-ethyl trial, dose 25 g/ha, 5 days) 17%; (Table 3.1 carfentrazone-ethyl trial, dose 80 g/ha, 10 days) 0%; (Table 3.1 carfentrazone-ethyl trial, dose 80 g/ha, 20 days) 8%. Further, the “Effect in % (leaf abscission)” value is, setting by setting: (Table 3.2 carfentrazone-ethyl trial, dose 25 g/ha, 6 days) 29%; (Table 3.2 carfentrazone-ethyl trial, dose 25 g/ha, 9 days) 52%.
Turning to pyraflufen-ethyl, the “Effect in % (leaf abscission)” value by setting is: (Table 2 pyraflufen-ethyl trial, dose 1 g/ha, 3 days) 0%; (Table 2 pyraflufen-ethyl trial, dose 1 g/ha, 5 days) 0%; (Table 2 pyraflufen-ethyl trial, dose 2 g/ha, 3 days) 0%; (Table 2 pyraflufen-ethyl trial, dose 2 g/ha, 5 days) 0%.
As to `COC(=O)CSc1cc(/N=c2\sc(=O)n3n2CCCC3)c(F)cc1Cl` [Fluthiacet-methyl, fluthiacet-methyl], the “Effect in % (leaf abscission)” value is 5% (Table 1 fluthiacet-methyl trial, dose 0.,5 g/ha, 4 days); 14% (Table 1 fluthiacet-methyl trial, dose 0.,5 g/ha, 5 days); 0% (Table 1 fluthiacet-methyl trial, dose 0.25 g/ha, 4 days); 0% (Table 1 fluthiacet-methyl trial, dose 0.25 g/ha, 5 days).

These data come from US6444613B1, “Defoliant” (Hoechst Schering AgrEvo GmbH, priority 1999, dated 2002).
